Measured values from patent US12729381B2, “Methods and compositions for inactivating interleukin-2-inducible t-cell kinase (ITK)” (priority 2020, dated 2026).
“Also recorded” adds a separate entry of the source.

Legend:
[1] = system: other kinases including mTOR and AKT; test: Western blot of phospho-kinases in T cells cultured with commercially available ITK inhibitors; format: cell-based; conditions: mouse T cells (10n, CTA056) and human PBMC T cells (10n); pAKT, pmTOR
Text: Novel peptide inhibitor SLP76pTYR specifically targets ITK signaling and enhances Treg cell development. Since T cells from SLP76Y145FKI mice can separate GVHD from GVL, we sought to determine whether disruption of ITK signaling with pharmacological agents would have a similar effect. […] Thus, we sought to design a novel inhibitor that would explicitly target the SLP76-ITK interaction and signaling by preventing the SH2 domain of ITK from docking onto SLP76 at tyrosine 145. Since evolution usually selects residues at specific protein: protein interfaces for certain properties (Pletneva et al., 2006), we analyzed the physico-chemical and structural properties of the interface of the SH2 domain and SLP76-pY145 in our quest to generate a potent inhibitor of the ITK-SH2 domain: SLP76-pY145 interaction (FIG. 17A,B). […]
(FIG. 27A) WT mouse T cells were cultured with either 10n or vehicle, then lysed post-incubation, and lysates were western blotted for pITK (size 50-75 kDa), pPLCγ1 (size ~155 kDa), PERK (size ~42 kDa), pAKT (size ~60 kDa), and pmTOR (size 240 kDa). (FIG. 27B) Western blots from three experiments were quantitated and normalized to actin. […] (FIG. 27D) Western blots from three experiments were quantitated and normalized to actin. […] (FIG. 27F) Western blots from three experiments were quantitated and normalized to β-Actin. […]

[2] = target: S1P1 (Mus musculus, UniProt O08530); conditions: retention of T cells in secondary lymphoid organs; cited from earlier work
S1P1, sequence (O08530 whole entry): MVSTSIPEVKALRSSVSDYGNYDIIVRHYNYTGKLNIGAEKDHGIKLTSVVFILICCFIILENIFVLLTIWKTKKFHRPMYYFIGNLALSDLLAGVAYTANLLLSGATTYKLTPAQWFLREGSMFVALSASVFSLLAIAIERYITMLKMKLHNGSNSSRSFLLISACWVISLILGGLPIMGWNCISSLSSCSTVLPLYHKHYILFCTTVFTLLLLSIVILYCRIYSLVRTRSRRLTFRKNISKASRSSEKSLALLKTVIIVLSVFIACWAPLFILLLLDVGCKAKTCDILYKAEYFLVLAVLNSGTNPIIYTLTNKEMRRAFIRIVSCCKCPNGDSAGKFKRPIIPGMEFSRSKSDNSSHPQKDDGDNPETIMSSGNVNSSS

With `CCc1ccc2nc(Nc3cc(Cc4ccccc4)nc(NC4CCC(O)CC4)n3)sc2c1` (stereo not drawn) [GSK2250665A] the “specificity for ITK / inhibition of other kinases” value [1] was “also inhibit several other kinases including mTOR and AKT”.
In the case of `CCCCCCCCc1ccc(CCC(N)(CO)CO)cc1` [FTY720], the “effect on GVHD and GVL” value [2] is given as “ameliorates GVHD while maintaining GVL effects”.
In the case of `O=c1[nH]c2cc3nc(-c4ccc(-c5ccncc5)cc4)n(CCCN4CCCCC4)c3cc2nc1Cc1ccccc1` [CTA056], the “specificity for ITK / inhibition of other kinases” value [1] was “also inhibit several other kinases including mTOR and AKT; also recorded: not specific for ITK”.
